{
  "source": "ChEMBL document CHEMBL3046373",
  "about": "“Optimised expression and spectral analysis of the target enzyme CYP51 from Penicillium digitatum with possible new DMI fungicides” (Pest Manag Sci, 2010)",
  "key": {"[1]": {"target": "T1, Cytochrome P450 14alpha-demethylase (Penicillium digitatum, UniProt A1XG20)", "T1 sequence (A1XG20 whole entry)": "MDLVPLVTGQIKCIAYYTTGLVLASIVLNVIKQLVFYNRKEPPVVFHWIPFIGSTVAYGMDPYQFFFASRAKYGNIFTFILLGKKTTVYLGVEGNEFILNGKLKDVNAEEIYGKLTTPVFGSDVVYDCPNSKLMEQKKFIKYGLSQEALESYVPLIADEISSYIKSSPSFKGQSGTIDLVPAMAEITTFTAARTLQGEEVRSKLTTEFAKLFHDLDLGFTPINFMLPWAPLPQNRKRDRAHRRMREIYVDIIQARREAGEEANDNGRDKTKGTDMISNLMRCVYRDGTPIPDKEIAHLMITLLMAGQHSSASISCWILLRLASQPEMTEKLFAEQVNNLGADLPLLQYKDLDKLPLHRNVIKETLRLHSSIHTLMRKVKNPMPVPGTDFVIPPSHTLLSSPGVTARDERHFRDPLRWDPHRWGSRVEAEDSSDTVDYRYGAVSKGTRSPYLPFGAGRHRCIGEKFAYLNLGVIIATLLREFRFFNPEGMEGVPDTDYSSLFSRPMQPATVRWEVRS", "experiment": "Binding affinity to Penicillium digitatum recombinant N-terminal-His6 tagged CYP51 expressed in Escherichia coli BL21(DE3) by spectrophotometric analysis"}, "Penicillium digitatum": {"test_system": "Penicillium digitatum", "experiment": "Antifungal activity against Penicillium digitatum after 48 hr", "type": "functional, organism-based"}},
  "data": [
    {"smiles": "CC(C)(C)C(=O)C(Oc1ccc(Cl)cc1)n1cncn1", "note": "(stereo not given) [TRIADIMEFON]", "values": [
      {"measurement": "Kd", "setting": "[1]", "value": 420, "unit": "nM"}
    ]},
    {"smiles": "COc1ccc2c(c1)SCC(N)=N2", "note": "[7-METHOXY-2H-BENZO[B][1,4]THIAZINE-3-AMINE]", "values": [
      {"measurement": "EC50", "setting": "Penicillium digitatum", "value": 1.18, "unit": "µg/mL"},
      {"measurement": "Kd", "setting": "[1]", "value": 268, "unit": "nM"}
    ]},
    {"smiles": "c1cc2c3c(cccc3c1)NC(c1cnc[nH]1)N2", "values": [
      {"measurement": "EC50", "setting": "Penicillium digitatum", "value": 38.6, "unit": "µg/mL"},
      {"measurement": "Kd", "setting": "[1]", "value": 990, "unit": "nM"}
    ]},
    {"smiles": "CC(C)(C)C(O)/C(=C\\c1ccc(Cl)cc1Cl)n1cncn1", "note": "(stereo not given) [DINICONAZOLE]", "values": [
      {"measurement": "Kd", "setting": "[1]", "value": 120, "unit": "nM"}
    ]},
    {"smiles": "Nc1nnc(CSCc2ccc(Cl)cc2)s1", "values": [
      {"measurement": "EC50", "setting": "Penicillium digitatum", "value": 7.88, "unit": "µg/mL"},
      {"measurement": "Kd", "setting": "[1]", "value": 642, "unit": "nM"}
    ]},
    {"smiles": "NNc1ncncc1-c1ccccc1", "note": "[5-PHENYLPYRIMIDIN-4-YLHYDRAZINE]", "values": [
      {"measurement": "EC50", "setting": "Penicillium digitatum", "value": 10.1, "unit": "µg/mL"},
      {"measurement": "Kd", "setting": "[1]", "value": 658, "unit": "nM"}
    ]}
  ]
}
